Active and inactive are the calls of the source.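 Rule for the calls: active = IC50 at or below 20 µM; inactive = the rest.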
Biological target: glucose-6-phosphate dehydrogenase-6-phosphogluconolactonase (PfGluPho), Plasmodium falciparum 3D7
Experiment: inhibition of P. falciparum G6PD activity – biochemical, fluorescence intensity, SAR follow-up (AID 588415)
Conditions: recombinant PfG6PD, resazurin-diaphorase NADPH fluorescence

Row | Structure (SMILES) | IC50
1 | COc1ccc(/C=C2/Sc3ccc(C(=O)NCCN4CCCC4)cc3NC2=O)cc1 | inactive
2 | CCN(CC)CCNC(=O)c1ccc2c(c1)N(Cc1cc(C)ccc1C)C(=O)c1ccccc1S2 | > 80 µM (inactive)
3 | CCN(CCNC(=O)c1ccc2c(c1)N(Cc1cc(C)ccc1C)C(=O)c1ccccc1S2)c1ccccc1 | > 80 µM (inactive)
4 | O=C(Nc1nnc(S(=O)(=O)N2CCCCCC2)s1)c1cccc(F)c1 | > 80 µM (inactive)
5 | Cc1ccccc1C(=O)Nc1nnc(S(=O)(=O)N2CCCc3ccccc32)s1 | > 80 µM (inactive)
6 | Cc1cccc(C(=O)Nc2nnc(S(=O)(=O)N3c4ccccc4CC3C)s2)c1 (centres undefined) | > 80 µM (inactive)
7 | CN(C)CCNC(=O)c1ccc2c(c1)NC(=O)/C(=C\c1cccc(Cl)c1)S2 | inactive
8 | CCN1CCCC1CNC(=O)c1ccc2c(c1)N(Cc1cccc(F)c1)C(=O)c1ccccc1S2 (centres undefined) | > 80 µM (inactive)
9 | O=C1Nc2cc(C(=O)NCCN3CCCCCC3)ccc2S/C1=C/c1ccccc1Cl | inactive
10 | O=C(Nc1nnc(S(=O)(=O)N2CCCCCC2)s1)C1CCCCC1 | > 80 µM (inactive)
11 | COc1cccc(/C=C2/Sc3ccc(C(=O)NCCN4CCCCCC4)cc3NC2=O)c1 | > 80 µM (inactive)
12 | CCC(C)N(CCNC(=O)c1ccc2c(c1)NC(=O)c1ccccc1S2)C1CCCCC1 (centres undefined) | 6.36 µM
13 | O=C(Nc1nnc(S(=O)(=O)N2CCCCCC2)s1)c1cccc(Cl)c1 | 5.6 µM
14 | CCN1CCCC1CNC(=O)c1ccc2c(c1)NC(=O)/C(=C/c1ccccc1F)S2 (centres undefined) | 1.73 µM
15 | CCN(CC)CCNC(=O)c1ccc2c(c1)NC(=O)/C(=C/c1ccccc1)S2 | 8.81 µM
16 | O=C(Nc1nnc(S(=O)(=O)N2CCCCC2)s1)c1cccc(F)c1 | > 80 µM (inactive)
17 | Cc1ccc(C(=O)Nc2nnc(S(=O)(=O)N3c4ccccc4CC3C)s2)cc1 (centres undefined) | > 80 µM (inactive)
18 | Cc1cccc(C(=O)Nc2nnc(S(=O)(=O)N3CCCCCC3)s2)c1 | 8.71 µM
19 | COc1ccc(/C=C2/Sc3ccc(C(=O)NCCN4CCCCCC4)cc3NC2=O)cc1 | > 80 µM (inactive)
20 | Cc1cccc(/C=C2/Sc3ccc(C(=O)NCCN4CCCC4)cc3NC2=O)c1 | 11.8 µM
21 | CCN(CC)CCNC(=O)c1ccc2c(c1)N(Cc1ccccc1Cl)C(=O)c1ccccc1S2 | > 80 µM (inactive)
22 | CCN(CC)CCNC(=O)c1ccc2c(c1)NC(=O)/C(=C\c1ccc(OC)c(OC)c1)S2 | inactive

Row | Structure (SMILES) | IC50
23 | COc1ccc(C(=O)Nc2nnc(S(=O)(=O)N3CCCCCC3)s2)cc1OC | > 80 µM (inactive)
24 | CCN(CC)CCNC(=O)c1ccc2c(c1)NC(=O)c1ccccc1S2 | inactive
25 | CC1Cc2ccccc2N1S(=O)(=O)c1nnc(NC(=O)c2cccc(Br)c2)s1 (centres undefined) | > 80 µM (inactive)
26 | CCN1CCCC1CNC(=O)c1ccc2c(c1)N(Cc1ccccc1Cl)C(=O)c1ccccc1S2 (centres undefined) | > 80 µM (inactive)
27 | COc1cccc(/C=C2/Sc3ccc(C(=O)NCCN4CCCC4)cc3NC2=O)c1 | inactive
28 | O=C1Nc2cc(C(=O)NCCN3CCCCCC3)ccc2S/C1=C/c1ccccc1F | inactive
29 | Cc1ccccc1C(=O)Nc1nnc(S(=O)(=O)N2CCCCCC2)s1 | > 80 µM (inactive)
30 | Cc1ccc(C(=O)Nc2nnc(S(=O)(=O)N3CCCCCC3)s2)cc1 | > 80 µM (inactive)
31 | CCN(CC)CCNC(=O)c1ccc2c(c1)NC(=O)/C(=C\c1ccccc1F)S2 | 7.36 µM
32 | COc1cccc(C(=O)Nc2nnc(S(=O)(=O)N3CCCCCC3)s2)c1 | 4.89 µM
33 | O=C(Nc1nnc(S(=O)(=O)N2CCCCCC2)s1)c1ccccc1F | > 80 µM (inactive)
34 | COc1ccc(/C=C2/Sc3ccc(C(=O)NCCN(C)C)cc3NC2=O)cc1 | > 80 µM (inactive)
35 | CN(CCNC(=O)c1ccc2c(c1)NC(=O)c1ccccc1S2)C1CCCCC1 | inactive
36 | CCN(CCNC(=O)c1ccc2c(c1)NC(=O)c1ccccc1S2)c1ccccc1 | > 80 µM (inactive)
37 | CCN(CC)CCNC(=O)c1ccc2c(c1)NC(=O)/C(=C\c1ccccc1Cl)S2 | 16.2 µM
38 | CCCN(CCC)CCNC(=O)c1ccc2c(c1)NC(=O)/C(=C/c1ccccc1)S2 | > 80 µM (inactive)
39 | Cc1ccc(C(=O)Nc2nnc(S(=O)(=O)N3CCCc4ccccc43)s2)cc1 | > 80 µM (inactive)
40 | COc1ccccc1C(=O)Nc1nnc(S(=O)(=O)N2CCCCCC2)s1 | > 80 µM (inactive)
41 | Cc1ccc(CN2C(=O)c3ccccc3Sc3ccc(C(=O)NCCN(C)C)cc32)cc1 | inactive
42 | O=C(Nc1nnc(S(=O)(=O)N2CCCCCC2)s1)c1ccccc1 | inactive
43 | CCN(CC)CCNC(=O)c1ccc2c(c1)N(Cc1ccc(C)cc1)C(=O)c1ccccc1S2 | inactive
44 | Cc1cccc(C(=O)Nc2nnc(S(=O)(=O)N3CCOCC3)s2)c1 | 4.17 µM

Row | Structure (SMILES) | IC50
45 | CCOc1ccc(C(=O)Nc2nnc(S(=O)(=O)N3CCCCCC3)s2)cc1 | > 80 µM (inactive)
46 | CCN(CC)CCNC(=O)c1ccc2c(c1)NC(=O)/C(=C\c1ccc(OC)cc1)S2 | inactive
47 | Cc1cccc(C(=O)Nc2nnc(S(=O)(=O)N3CCCc4ccccc43)s2)c1 | > 80 µM (inactive)
48 | O=C(Nc1nnc(S(=O)(=O)N2CCCCCC2)s1)c1cccc(Br)c1 | 7.35 µM
49 | COc1ccc(C(=O)Nc2nnc(S(=O)(=O)N3CCCCCC3)s2)cc1 | inactive
50 | Cc1cccc(C(=O)Nc2nnc(S(=O)(=O)N3CCC(C)CC3)s2)c1 | 13 µM
51 | CCN1CCCC1CNC(=O)c1ccc2c(c1)NC(=O)/C(=C\c1ccccc1F)S2 (centres undefined) | 1.75 µM
52 | CCN1CCCC1CNC(=O)c1ccc2c(c1)NC(=O)/C(=C\c1ccccc1Cl)S2 (centres undefined) | 2.56 µM
53 | O=C(Nc1nnc(S(=O)(=O)N2CCCCCC2)s1)c1ccco1 | > 80 µM (inactive)
54 | Cc1cccc(N2CCN(CCNC(=O)c3ccc4c(c3)NC(=O)c3ccccc3S4)CC2)c1C | > 80 µM (inactive)
55 | CCN1CCCC1CNC(=O)c1ccc2c(c1)NC(=O)c1ccccc1S2 (centres undefined) | 12.2 µM
56 | O=C(Nc1nnc(S(=O)(=O)N2CCCCCC2)s1)c1ccc(F)cc1 | inactive
57 | CCN1CCCC1CNC(=O)c1ccc2c(c1)N(Cc1ccc(C(F)(F)F)cc1)C(=O)c1ccccc1S2 (centres undefined) | > 80 µM (inactive)
58 | CC1Cc2ccccc2N1S(=O)(=O)c1nnc(NC(=O)c2cccc(F)c2)s1 (centres undefined) | > 80 µM (inactive)
59 | O=C(Nc1nnc(S(=O)(=O)N2CCCc3ccccc32)s1)c1cccc(F)c1 | > 80 µM (inactive)
60 | O=C(Nc1nnc(S(=O)(=O)N2CCOCC2)s1)c1cccc(F)c1 | inactive
61 | O=C1Nc2cc(C(=O)NCCN3CCCC3)ccc2S/C1=C/c1ccccc1Cl | 11.1 µM
62 | CCN(CCNC(=O)c1ccc2c(c1)N(CC)C(=O)c1ccccc1S2)c1ccccc1 | > 80 µM (inactive)
63 | CCN1CCCC1CNC(=O)c1ccc2c(c1)N(Cc1ccccc1F)C(=O)c1ccccc1S2 (centres undefined) | > 80 µM (inactive)
64 | CCCN(CCC)CCNC(=O)c1ccc2c(c1)NC(=O)/C(=C\c1ccc(C)cc1)S2 | > 80 µM (inactive)
